These results are taken from publication PMC8306933 (Molecules, 2021).

SMILES strings stand for the structures. Like-named read-outs stand apart in the source and are kept apart here.

The target of assay [1] is T1, Acetylcholinesterase from electric eel (Electrophorus electricus, UniProt O42275).
T1 construct: purchased Sigma-Aldrich (St. Louis, MO, USA) type VI-s; host or cells: electric eel
Nature of the assay: biochemical. The class given is biochemical. An excerpt:
(§1) Trizma hydrochloride (Tris-HCl) and bovine serum albumin (BSA) were obtained from Sigma–Aldrich (Steinheim, Germany). Deionized water was produced using a Milli-Q water purification system (Millipore, Bedford, MA, USA). Dulbecco’s Modified Eagle Medium (DMEM) was collected from Gibco (Japan), and fetal bovine serum (FBS) was also collected from Gibco (Waltham, MA, USA). Insulin and penicillin G/streptomycin were collected from Wako (Fujifilm Wako Pure Chemical Corporation, Osaka, Japan), the MTS kit was collected from Promega (Madison, WI, USA), and poly-2-hydroxyethyl methacrylate was collected from Sigma-Aldrich (Taufkirchen, Germany).
(§2) The cholinesterase inhibitory (AChE/BChE) properties were ascertained based on Ellman’s method, as previously described. […] In the AChE inhibitory assay, 25 µL of sample solution (0–1 mM) along with 50 µL of buffer B (50 mM Tris-HCl, pH 8 containing 0.1% BSA), 125 µL of DTNB (3 mM), and 25 µL of 0.05 U/mL AChE were incubated at 37 °C for 10 min. After incubation, 25 µL of acetylthiocholine iodide (5 mM) as AChE substrate was incorporated to the solution. The BChE activity was determined following the same protocol using 25 µL of 5 mM S-butyrylthiocholine chloride as BChE substrate and 0.05 U/mL BChE as enzyme. […] The percentage of inhibition was calculated and the results were expressed as IC50 (µM).

Assay [2] deals with T2, α-amylase from porcine pancreas (Sus scrofa, UniProt P00690).
T2 construct: purchased Sigma-Aldrich (St. Louis, MO, USA); host or cells: porcine pancreas
T2 sequence (P00690 16-511): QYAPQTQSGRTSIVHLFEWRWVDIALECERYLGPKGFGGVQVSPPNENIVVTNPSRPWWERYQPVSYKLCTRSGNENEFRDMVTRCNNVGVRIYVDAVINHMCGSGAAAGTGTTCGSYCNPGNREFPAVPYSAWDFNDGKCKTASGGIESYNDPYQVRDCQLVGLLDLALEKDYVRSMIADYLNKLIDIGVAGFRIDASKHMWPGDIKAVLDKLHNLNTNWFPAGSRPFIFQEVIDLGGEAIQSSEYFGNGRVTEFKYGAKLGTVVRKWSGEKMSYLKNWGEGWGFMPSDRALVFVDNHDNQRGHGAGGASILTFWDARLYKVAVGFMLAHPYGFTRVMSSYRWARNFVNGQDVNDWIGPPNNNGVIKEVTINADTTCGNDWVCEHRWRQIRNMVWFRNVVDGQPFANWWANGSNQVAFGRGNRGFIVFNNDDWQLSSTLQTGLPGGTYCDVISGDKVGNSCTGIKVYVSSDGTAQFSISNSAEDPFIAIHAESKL
Nature of the assay: biochemical. The class given is biochemical.
From the text: as §1
α-Amylase inhibitory activity was determined following the starch-iodine method with some modifications. A 1% starch solution was prepared by 1 g of starch in 10 mL of distilled water following gentle boiling and cooling into 100 mL. A reaction mixture, 25 μL sample (0–1 mM) and 50 μL α-amylase (5 U/mL) in phosphate buffer, was incubated at 37 °C for 10 min. Afterwards, the starch (100 μL, 1% w/v) solution was added to the mixture and incubated again at 37 °C for 10 min. […] After adding the iodine/iodide solution, based on the colour change, the absorbance was monitored at 630 nm for 10 min. […] The percentage of inhibition was calculated and results were expressed as IC50 (µM).

The target of assay [3] is T3, butyrylcholinesterase from equine serum (Equus caballus, UniProt P81908).
T3 construct: purchased Sigma-Aldrich (St. Louis, MO, USA); host or cells: equine serum
T3 sequence (P81908 whole entry): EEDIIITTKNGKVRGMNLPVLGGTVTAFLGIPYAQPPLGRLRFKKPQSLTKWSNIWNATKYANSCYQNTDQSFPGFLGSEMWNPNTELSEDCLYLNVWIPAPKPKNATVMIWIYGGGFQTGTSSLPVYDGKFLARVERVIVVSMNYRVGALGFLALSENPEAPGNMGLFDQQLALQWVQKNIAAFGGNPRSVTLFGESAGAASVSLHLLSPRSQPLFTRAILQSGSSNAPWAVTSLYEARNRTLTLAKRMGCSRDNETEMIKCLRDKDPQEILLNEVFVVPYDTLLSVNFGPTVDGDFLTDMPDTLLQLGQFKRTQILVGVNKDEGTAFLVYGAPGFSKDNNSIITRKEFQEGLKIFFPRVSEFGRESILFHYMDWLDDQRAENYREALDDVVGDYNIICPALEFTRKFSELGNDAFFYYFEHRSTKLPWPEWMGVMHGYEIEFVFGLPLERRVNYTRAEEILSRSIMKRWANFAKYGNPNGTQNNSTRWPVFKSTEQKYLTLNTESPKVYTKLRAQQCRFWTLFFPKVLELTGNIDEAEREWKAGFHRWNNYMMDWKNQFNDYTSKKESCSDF
Kind of assay: BChE inhibition (Ellman's method). The class given is biochemical.
From the text: as §1, §2
A general note: DTNB colorimetry detects thiols as they appear.

The subject of assay [4] is Hs578T cells. Kind of assay: Cytotoxicity / cell viability (MTS assay), Hs578T. The class given is cell-based. To be noted: for IC50: Homo sapiens, Hs-578T, TNBC cell line Hs578T, read-out: IC50 cytotoxic activity Hs578T; for reduction of the number of TNBC cells Hs578T: after three days of treatment at IC50. As for the experimental part:
(§3) The human TNBC cell lines Hs578T and MDA-MB-231 were obtained from the American Type Culture Collection and cultured in Dulbecco’s Modified Eagle Medium (DMEM) supplemented with fetal bovine serum (FBS) (10% v/v), insulin (Hs578T cell only), and penicillin G/streptomycin 1% (v/v) at 37 °C under 5% CO2. The absence of culture contamination by Mycoplasma species was confirmed before the experiments.
(§4) The activity of the selected compounds on breast cancer cell viability were determined employing the MTS assay. Briefly, 5 × 10^3 cells were seeded in each well of a 96-well plate for 24 h, and growth medium containing different compounds was added and incubated in different periods. A total of 20 µL of the MTS kit was added to each well, and the cells were incubated for 2 h. After incubation, the absorbance was measured at 490 nm with an enzyme-linked immunosorbent assay microplate reader (BioTek Instruments, USA). The absorbance value is directly proportional to the number of living cells.
(Tetrazolium dyes change colour on reduction, which living cells bring about.)

For assay [5], the system named is MDA-MB-231 cells. Kind of assay: Cytotoxicity / cell viability (MTS assay), MDA-MB-231. To be noted: for IC50: Homo sapiens, TNBC cell line MDA-MB-231, read-out: IC50 cytotoxic activity MDA-MB-231; for reduction of the number of TNBC cells MDA-MB-231: after three days of treatment at IC50. The class given is cell-based. As for the experimental part:
as §3, §4

Assay [6] has as its system Hs578T cells. Nature of the assay: Transwell cell migration assay, Hs578T. The class given is cell-based, human. Conditions: at IC50; vs DMSO control. As for the experimental part: as §3
(§5) The effects of the selected compounds on breast cancer cell migration were evaluated in transwell chambers according to a published protocol. Briefly, the Hs578T and MDA-MB-231 cells were treated with the tested compounds for 24 h, trypsinized, and washed twice with serum-free medium. Approximately 3 × 10^4 pretreated cells, suspended in 100 μL of the serum-free medium, were seeded to the upper chamber. The lower chambers were filled with approximately 500 μL of DMEM medium with 10% FBS and incubated for 12 h. After incubation, the cells from the upper surface were wiped off with cotton swabs, while the migrated cells on the opposite side of the transwell were washed twice with PBS, fixed with 4% paraformaldehyde, and finally stained with crystal violet solution. After 2 washes with water (Milli Q), several microscopic fields were taken randomly, and the migrated cells were counted using ImageJ software.

Assay [7] concerns MDA-MB-231 cells. Kind of assay: Tumor-sphere formation assay, MDA-MB-231. The class given is cell-based, human. Conditions: in vitro tumor-sphere formation. As for the experimental part: as §3
(§6) Three-dimensional or tumor-sphere culture is a recently introduced in vitro technique which maintains a physiological environment which closely resembles that of in vivo conditions. This technique has now been widely used for the screening of anticancer moieties. In vitro tumor-sphere formation assay was performed following a reported protocol. Briefly, approximately 3 × 10^3 cells were resuspended in a poly-2-hydroxyethyl methacrylate coated 6-well plate containing a sphere-forming medium with or without tested compounds and incubated for one week. The number of tumor spheres were counted, and the diameter of each tumor sphere was measured.

Assay [8] concerns MDA-MB-231 cells. Kind of assay: Transwell cell migration assay, MDA-MB-231. The class given is cell-based, human. Conditions: at IC50; vs DMSO control. As for the experimental part:
as §3, §5

In assay [9] the test system is Hs578T cells. Kind of assay: Tumor-sphere formation assay, Hs578T. The class given is cell-based, human. Conditions: in vitro tumor-sphere formation. As for the experimental part: as §3, §6
Setting [10] is: mean ± SD (n = 3), tested 0–1 mM.
The mark [11] stands for this setting: mean ± SD (n = 3), tested 0–1 mM, read-out: IC50 AChE.
The mark [12] stands for this setting: mean ± SD (n = 3), mammalian α-amylase.
The mark [13] stands for this setting: mean ± SD (n = 3), mammalian α-amylase, read-out: IC50 α-Amylase.
Setting [14] is: mean ± SD (n = 3), tested 0–1 mM, read-out: IC50 BChE.

T1 sequence (O42275 24-633): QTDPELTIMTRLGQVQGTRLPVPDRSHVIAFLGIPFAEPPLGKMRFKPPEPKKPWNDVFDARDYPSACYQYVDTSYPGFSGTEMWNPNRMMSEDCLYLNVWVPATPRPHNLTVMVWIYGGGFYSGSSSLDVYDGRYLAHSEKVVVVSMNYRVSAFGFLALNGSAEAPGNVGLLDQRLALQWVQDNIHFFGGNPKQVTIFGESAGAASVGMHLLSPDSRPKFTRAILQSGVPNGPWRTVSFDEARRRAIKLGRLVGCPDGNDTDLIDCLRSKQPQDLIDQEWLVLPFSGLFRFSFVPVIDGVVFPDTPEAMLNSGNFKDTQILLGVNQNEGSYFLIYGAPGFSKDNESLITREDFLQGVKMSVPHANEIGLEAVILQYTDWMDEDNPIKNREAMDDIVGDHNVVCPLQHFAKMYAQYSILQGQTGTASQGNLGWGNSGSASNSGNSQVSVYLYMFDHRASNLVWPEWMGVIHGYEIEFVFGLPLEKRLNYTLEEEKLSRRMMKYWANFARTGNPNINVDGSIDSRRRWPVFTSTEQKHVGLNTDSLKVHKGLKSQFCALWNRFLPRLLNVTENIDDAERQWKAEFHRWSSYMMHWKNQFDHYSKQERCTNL

`COc1ccc(CCO[C@@H]2O[C@H](CO)[C@@H](OC(=O)/C=C/c3ccc(O)c(O)c3)[C@H](O[C@@H]3O[C@@H](C)[C@H](O)[C@@H](O)[C@H]3O)[C@H]2O)cc1OC` [Compound 7, brachynoside]: the “IC50 AChE” value in assay [1] (setting [10]) is “no inhibitory activity”. The IC50 in assay [1] (setting [11]) is above 1000 µM; in assay [2] (setting [13]), 221 ± 24.5 µM; in assay [3] (setting [14]), above 1000 µM. In addition, in assay [2] (setting [12]), the “IC50 α-Amylase” value is “almost inactive”.
Regarding `COc1cc(/C=C/C(=O)O[C@H]2[C@H](O[C@@H]3O[C@@H](C)[C@H](O)[C@@H](O)[C@H]3O[C@@H]3O[C@H](CO)[C@@H](O)[C@H](O)[C@H]3O)[C@@H](O)[C@H](OCCc3ccc(O)c(O)c3)O[C@@H]2CO)ccc1O` [Compound 8, incanoside C], the IC50 in assay [1] (setting [11]) was 178 ± 11.3 µM; in assay [2] (setting [13]) it was 19.8 ± 0.5 µM; in [3] (setting [14]), above 1000 µM.
Consider `CC1=C(CO)[C@@H]2CC(=O)c3cc(C[C@@H](C)O)c(O[C@@H]4O[C@@H](CO)C(O)[C@H](O)[C@@H]4O[C@@H]4O[C@H](CO)[C@@H](O)[C@H](O)[C@@H]4O)c(O)c3[C@@]2(C)CC1` (stereo partly drawn) [Compound 1, (5R,10S,16R)-11,16,19-trihydroxy-12-O-β-D-glucopyranosyl-(1→2)-β-D-glucopyranosyl-17(15→16),18(4→3)-diabeo-3,8,11,13-abietatetraene-7-one], for which the IC50 in assay [1] is 191 ± 10.2 µM; in [4] it was 128 ± 2.2 µM; in [5], 122 ± 1.2 µM; in [2], 18.5 ± 0.6 µM; in assay [3], above 1000 µM.
For `COc1ccc(CCO[C@@H]2O[C@H](CO)[C@@H](OC(=O)/C=C/c3ccc(O)c(O)c3)[C@H](O[C@@H]3O[C@@H](C)[C@H](O)[C@@H](O)[C@H]3O)[C@H]2O)cc1O` [Compound 6, jionoside D], in [1] (setting [10]), the “IC50 AChE” value was “no inhibitory activity”. The IC50 in assay [1] (setting [11]) was above 1000 µM; in assay [2] (setting [13]), 3.4 ± 0.2 µM; in assay [3] (setting [14]) it was above 1000 µM.
Regarding `O=C(O)C[C@H]1CCC(=O)[C@@H]1C/C=C\CCO[C@@H]1O[C@H](COC(=O)/C=C/c2ccc(O)c(O)c2)[C@@H](O)[C@H](O)[C@H]1O` [Compound 4, 6′-O-caffeoyl-12-glucopyranosyloxyjasmonic acid], in assay [1] (setting [10]), the “IC50 AChE” value is “no inhibitory activity”. The IC50 in assay [1] (setting [11]) was above 1000 µM; in assay [4], 210 ± 5.1 µM; in assay [5], 199 ± 3.1 µM; in assay [2] (setting [13]), 13 ± 1.3 µM; in assay [3] (setting [14]), above 1000 µM.
For `CC1=C(C(=O)O)C2CC(=O)c3cc(CC(C)O)c(OC4OC(CO)C(O)C(O)C4OC4OC(CO)C(O)C(O)C4O)c(O)c3C2(C)CC1` [Compound 2, (5R,10S,16R)-11,16-dihydroxy-12-O-β-D-glucopyranosyl-(1→2)-β-D-glucopyranosyl-17(15→16),18(4→3)-diabeo-4-carboxy-3,8,11,13-abietatetraene-7-one], the IC50 in assay [1] was 139 ± 7.2 µM; in assay [2] it was 64.6 ± 7.1 µM; in assay [3], above 1000 µM.
For the compound `CC1OC(OC2C(O)C(OCCc3ccccc3)OC(CO)C2OC(=O)C=Cc2ccc(O)c(O)c2)C(O)C(O)C1O` (stereo not drawn) [Compound 5, jionoside C], the IC50 in assay [1] (setting [11]) is 160 ± 12.2 µM; in assay [4], 85.3 ± 2.4 µM; in assay [5], 96.5 ± 1.5 µM; in assay [2] (setting [13]) it was 24.9 ± 0.4 µM; in [3] (setting [14]), above 1000 µM. The “inhibition of migration of Hs578T cell” value in assay [6] turned out to be 43%. Further, the “reduction of the number of TNBC cells Hs578T” value in assay [4] came to 42%. In [7], the “tumor-sphere size and number, MDA-MB-231” value was “reduced the cell size (Figure 5A,C) and the cell number significantly”. Also, the “reduction of the number of TNBC cells MDA-MB-231” value in assay [5] is 43%. In assay [8], the “inhibition of migration of MDA-MB-231” value is 37%. Further, the “tumor-sphere size and number, Hs578T” value in assay [9] is “reduced the cell size (Figure 5A,C) and the cell number significantly”.
Regarding `CC1=CC(=O)CC(C)(C)[C@H]1CC[C@@H](C)O[C@@H]1O[C@H](CO)[C@@H](O)[C@H](O)[C@H]1O` [Compound 3, byzantionoside B], the “IC50 AChE” value in [1] (setting [10]) is reported as “no inhibitory activity”. Also, the IC50 is above 1000 µM in assay [1] (setting [11]); 94.7 ± 1.3 µM in assay [4]; 118 ± 3.3 µM in assay [5]; 284 ± 13.2 µM in [2] (setting [13]); above 1000 µM in [3] (setting [14]). In addition, in assay [6], the “inhibition of migration of Hs578T cell” value is 50%. In assay [4], the “reduction of the number of TNBC cells Hs578T” value is 44%. Also, in assay [5], the “reduction of the number of TNBC cells MDA-MB-231” value is given as 48%. Besides, in assay [8], the “inhibition of migration of MDA-MB-231” value is recorded as 40%. Also, in assay [2] (setting [12]), the “IC50 α-Amylase” value was “almost inactive”.

What is called IC50 is the concentration that gives 50% inhibition.
